The values below are quoted from earlier work in US10695439B2, “Pyrrolobenzodiazepine conjugates” (Medimmune Limited, priority 2016, dated 2020).

The test system of one series is human tumour cell lines. The note with it: quoted from 2014 REF impact study.
Series [1] deals with human tumour xenograft models. As to conditions: quoted from 2014 REF impact study.
The conditions of series [2]: relative to SG2057, Hartley et al 2012.

As to `COc1ccc(C2=CN3C(=O)c4cc(OC)c(OCCCOc5cc6c(cc5OC)C(=O)N5C=C(c7ccc(OC)cc7)C[C@H]5C=N6)cc4N=C[C@@H]3C2)cc1` [SG2202], the “activity against a range of human tumour cell lines” value in the series with human tumour cell lines was “picomolar/sub-picomolar activity”. Moreover, the “activity in human tumour xenograft models” value in series [1] is “curative activity”.
`C=C1C[C@H]2C=Nc3cc(OCCCOc4cc5c(cc4OC)C(=O)N4CC(=C)C[C@H]4C=N5)c(OC)cc3C(=O)N2C1` [SG2000]: the “cytotoxicity, times less cytotoxic than SG2057” value in series [2] is “at least 10 times”.
